Values joined by “and” are separate entries in the source; they are usually repeats but may differ in a detail not shown here. Equal entries are not always repeated. Numbers after ± are expanded uncertainties.
Test: xn = mol fraction of the nth substance listed
Conditions: 96 kPa, Liquid, Pycnometric method

C1CCC2=NCCCN2CC1 [1,8-diaza-7-bicyclo[5.4.0]undecene] + OCC(O)CO
mass density
Conditions	288.15 K	293.15 K	298.15 K	303.15 K	308.15 K	313.15 K	318.15 K	323.15 K	328.15 K
x1 = 0.0501	1251.8 ± 8.6 kg/m3	–	1245.4 ± 8.6 kg/m3	–	1239 ± 8.6 kg/m3	–	1232.2 ± 8.6 kg/m3	–	1224.9 ± 8.6 kg/m3
x1 = 0.0909	1238.4 ± 8.6 kg/m3	–	1231.7 ± 8.6 kg/m3	–	1224.7 ± 8.6 kg/m3	–	1217.1 ± 8.6 kg/m3	–	1208.3 ± 8.6 kg/m3
x1 = 0.0926	–	1236.7 ± 8.6 kg/m3	–	1229.7 ± 8.6 kg/m3	–	1222.9 ± 8.6 kg/m3	–	1216 ± 8.6 kg/m3	–
x1 = 0.1667	1211.2 ± 8.6 kg/m3	–	1204.2 ± 8.6 kg/m3	–	1196.4 ± 8.6 kg/m3	–	1188.2 ± 8.6 kg/m3	–	1180.2 ± 8.6 kg/m3
x1 = 0.1902	–	1197.8 ± 8.6 kg/m3	–	1191.9 ± 8.6 kg/m3	–	1184.5 ± 8.6 kg/m3	–	1177.6 ± 8.6 kg/m3	–
x1 = 0.2	1200.6 ± 8.6 kg/m3	–	1192.3 ± 8.6 kg/m3	–	1184.9 ± 8.6 kg/m3	–	1176.9 ± 8.6 kg/m3	–	1170.9 ± 9.6 kg/m3 and 1169.4 ± 8.6 kg/m3
x1 = 0.2153	1195.3 ± 8.6 kg/m3	–	1187 ± 8.6 kg/m3	–	1179.6 ± 8.6 kg/m3	–	1171.5 ± 8.6 kg/m3	–	1164.2 ± 8.6 kg/m3
x1 = 0.2306	1190.3 ± 8.6 kg/m3	–	1181.8 ± 8.6 kg/m3	–	1174.6 ± 8.6 kg/m3	–	1166.7 ± 8.6 kg/m3	–	1158.9 ± 8.5 kg/m3
x1 = 0.2998	–	1161.7 ± 8.5 kg/m3	–	1156.4 ± 8.5 kg/m3	–	1149.2 ± 8.5 kg/m3	–	1142.5 ± 8.5 kg/m3	–
x1 = 0.3059	1167.2 ± 8.5 kg/m3	–	1158 ± 8.5 kg/m3	–	1150.5 ± 8.5 kg/m3	–	1142.9 ± 8.5 kg/m3	–	1136 ± 8.5 kg/m3
x1 = 0.3333	1159.4 ± 8.5 kg/m3	–	1149.8 ± 8.5 kg/m3	–	1142.5 ± 8.5 kg/m3	–	1134.9 ± 8.5 kg/m3	–	1128 ± 8.5 kg/m3
x1 = 0.3996	–	1133.2 ± 8.5 kg/m3	–	1128.3 ± 8.5 kg/m3	–	1121.2 ± 8.5 kg/m3	–	1114.6 ± 8.5 kg/m3	–
x1 = 0.4011	1141.5 ± 8.5 kg/m3	–	1131.6 ± 8.5 kg/m3	–	1124.1 ± 8.5 kg/m3	–	1117.3 ± 8.5 kg/m3	–	1109.7 ± 8.5 kg/m3
x1 = 0.5	1117.4 ± 8.5 kg/m3	–	1107.1 ± 9.6 kg/m3 and 1108.1 ± 8.5 kg/m3	–	1100.2 ± 8.5 kg/m3	–	1091.1 ± 9.6 kg/m3 and 1093.5 ± 8.5 kg/m3	–	1086 ± 8.5 kg/m3
x1 = 0.5032	–	1108.7 ± 8.5 kg/m3	–	1102.3 ± 8.5 kg/m3	–	1095.3 ± 8.5 kg/m3	–	1087.4 ± 8.5 kg/m3	–
x1 = 0.5632	1102.9 ± 8.5 kg/m3	–	1093.7 ± 8.5 kg/m3	–	1086.4 ± 8.5 kg/m3	–	1079.3 ± 8.5 kg/m3	–	1071.9 ± 8.5 kg/m3
x1 = 0.5995	–	1088 ± 8.5 kg/m3	–	1081.9 ± 8.5 kg/m3	–	1075.9 ± 8.5 kg/m3	–	1068.3 ± 8.5 kg/m3	–
x1 = 0.625	1089.8 ± 8.5 kg/m3	–	1081 ± 8.5 kg/m3	–	1073.9 ± 8.5 kg/m3	–	1066.7 ± 8.5 kg/m3	–	1059.1 ± 8.5 kg/m3
x1 = 0.6992	–	1069.6 ± 8.5 kg/m3	–	1064.2 ± 8.5 kg/m3	–	1056.8 ± 8.5 kg/m3	–	1049.7 ± 8.5 kg/m3	–
x1 = 0.75	1066.1 ± 9.6 kg/m3 and 1065.4 ± 8.5 kg/m3	–	1058.1 ± 8.5 kg/m3	–	1050.9 ± 8.5 kg/m3	–	1042.7 ± 8.5 kg/m3	–	1035.3 ± 8.5 kg/m3
x1 = 0.7998	–	1052.3 ± 8.5 kg/m3	–	1045.7 ± 8.5 kg/m3	–	1038.7 ± 8.5 kg/m3	–	1031.5 ± 8.5 kg/m3	–
x1 = 0.8333	1051.7 ± 8.5 kg/m3	–	1044.3 ± 8.5 kg/m3	–	1037 ± 8.5 kg/m3	–	1028.7 ± 8.5 kg/m3	–	1021.1 ± 8.5 kg/m3
x1 = 0.9001	–	1030.8 ± 8.5 kg/m3	–	1028.9 ± 8.5 kg/m3	–	1021.2 ± 8.5 kg/m3	–	1013.9 ± 8.5 kg/m3	–
x1 = 1	1020.6 ± 8.2 kg/m3	1017.1 ± 8.2 kg/m3	1014.1 ± 8.2 kg/m3	1010.9 ± 8.2 kg/m3	1007.4 ± 8.2 kg/m3	1004.6 ± 8.2 kg/m3	1000.8 ± 8.2 kg/m3	998.4 ± 8.2 kg/m3	994.2 ± 8.2 kg/m3
